Experimental data as given in patent publication US7230104B2, “Fungicidal 5-phenyl substituted 2-(cyanoamino) pyrimidines” (priority 2000, dated 2007).
≈ marks a conversion by molar mass, not a printed value.

What was measured:
Rhizoctonia solani = conditions: 10 ppm; 3–7 days of incubation
Method: After 3–7 days of incubation, inhibition of mycelial growth is recorded using the following scale: The data obtained are shown in Table VI.

Venturia inaequalis = assay: Evaluation of in vivo fungicidal activity, Apple Scab (AS); conditions: plants sprayed with 200 ppm test solution, inoculated the same day
[1] = test system: Pyricularia grisea sp. oryzae; assay type: in vivo; conditions: Rice Blast; plants sprayed with 200 ppm test solution, inoculated the same day
[2] = Evaluation of in vivo fungicidal activity, Grape downy mildew (GDM); design: species or system Uniclnula necator; conditions: plants sprayed with 200 ppm test solution, inoculated the same day
Pyricularia Oryzae = assay type: cell-based; conditions: lowest concentration causing total inhibition of mycelial growth; 6–12 days incubation at 18 to 25° C.; visual inspection

CC(Nc1nc(N(C)C#N)nc(Cl)c1-c1c(F)cc(F)cc1F)C(F)(F)F (centres unmarked) [Example 1, 2-(N-cyano-N-methylamino)-4-chloro-5-(2,4,6-trifluorophenul)-6-(1,1,1-trifluoroprop-2-ylamino)-pyrimidine]
Rhizoctonia solani (Rice sheath blight) inhibition of mycelial growth rating (Rhizoctonia solani): 7

CCCCN(C#N)c1nc(Cl)c(-c2c(F)cc(F)cc2F)c(NC(C)C(F)(F)F)n1 (centres unmarked) [Example 2]
AS disease control rating (Venturia inaequalis): 0 (0) | RB disease control rating [1]: 0 (0) | GDM disease control rating [2]: 0 (0)

CC(C)Nc1nc(N(C)C#N)nc(Cl)c1-c1c(F)cc(F)cc1F [Example 3]
MIC (Pyricularia Oryzae): 3.13 µg/mL (≈ 8.8 µM) | AS disease control rating (Venturia inaequalis): 7 (90–95) | RB disease control rating [1]: 5 (60–74) | GDM disease control rating [2]: 7 (90–95)

CN(C#N)c1nc(Cl)c(-c2c(F)ccc(F)c2F)c(NC2CCCC2)n1 [Example 4]
MIC (Pyricularia Oryzae): >100 µg/mL | AS disease control rating (Venturia inaequalis): 5 (60–74) | RB disease control rating [1]: 3 (30–44) | GDM disease control rating [2]: 3 (30–44) | Rhizoctonia solani (Rice sheath blight) inhibition of mycelial growth rating (Rhizoctonia solani): 7

CC1CCN(c2nc(N(C)C#N)nc(Cl)c2-c2c(F)cccc2Cl)CC1 [Example 5]
MIC (Pyricularia Oryzae): 25 µg/mL (≈ 63.4 µM) | AS disease control rating (Venturia inaequalis): 9 (100) | RB disease control rating [1]: 4 (45–59) | GDM disease control rating [2]: 0 (0) | Rhizoctonia solani (Rice sheath blight) inhibition of mycelial growth rating (Rhizoctonia solani): 0

CCC(C)Nc1nc(N(C)C#N)nc(Cl)c1-c1c(F)cccc1Cl (centres unmarked) [Example 6]
MIC (Pyricularia Oryzae): 6.25 µg/mL (≈ 17 µM) | AS disease control rating (Venturia inaequalis): 9 (100) | RB disease control rating [1]: 6 (75–89) | GDM disease control rating [2]: 3 (30–44) | Rhizoctonia solani (Rice sheath blight) inhibition of mycelial growth rating (Rhizoctonia solani): 0

CC1CCN(c2nc(N(C)C#N)nc(Cl)c2-c2c(F)cc(F)cc2F)CC1 [Example 7]
MIC (Pyricularia Oryzae): 100 µg/mL (≈ 253 µM) | Rhizoctonia solani (Rice sheath blight) inhibition of mycelial growth rating (Rhizoctonia solani): 0

CC(N(C)c1nc(N(C)C#N)nc(Cl)c1-c1c(F)cc(F)cc1F)C(F)(F)F (centres unmarked) [Example 8]
Rhizoctonia solani (Rice sheath blight) inhibition of mycelial growth rating (Rhizoctonia solani): 7
